Laboratory results reported in PubChem BioAssay AID1963985 (Molecular Pharmacology Branch, DTP, NCI, 2024).

Tested on: 252836-082-R-J2-PDC tumor spheroids, viability
Assay: Anticancer human tumor 252836-082-R-J2-PDC patient-derived head and neck squamous cell carcinoma cell line growth inhibition [PI3K]
Conditions: spheroids with HUVEC and MSC; for IC50: curve of first compound; for viability, T/C: stronger effect = lower value
In short: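 Tumor cells grown as multi-cell spheroids with HUVEC endothelial cells and MSC fibroblast-like stroma were treated with targeted agents combined with inavolisib, alpelisib, duvelisib or copanlisib. Doses fell in half-log steps from near clinical Cmax, else from 10 microM. Viability was measured.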

[1] = second compound 0.0316 µM, first compound 0.0316 µM
[2] = second compound 0.0316 µM, first compound 0.1 µM
[3] = second compound 0.1 µM, first compound 0.0316 µM
[4] = second compound 0.1 µM, first compound 0.1 µM
[5] = second compound 0.316 µM, first compound 0.0316 µM
[6] = second compound 0.316 µM, first compound 0.1 µM
[7] = second compound 1 µM, first compound 0.0316 µM
[8] = second compound 1 µM, first compound 0.1 µM
[9] = second compound 3.16 µM, first compound 0.0316 µM
[10] = second compound 3.16 µM, first compound 0.1 µM
[11] = second compound 10 µM, first compound 0.0316 µM
[12] = second compound 10 µM, first compound 0.1 µM
[13] = second compound 0.0316 µM, first compound 0.316 µM
[14] = second compound 0.0316 µM, first compound 1 µM
[15] = second compound 0.0316 µM, first compound 3.16 µM
[16] = second compound 0.0316 µM, first compound 10 µM
[17] = second compound 0.1 µM, first compound 0.316 µM
[18] = second compound 0.1 µM, first compound 1 µM
[19] = second compound 0.1 µM, first compound 3.16 µM
[20] = second compound 0.1 µM, first compound 10 µM
[21] = second compound 0.316 µM, first compound 0.316 µM
[22] = second compound 0.316 µM, first compound 1 µM
[23] = second compound 0.316 µM, first compound 3.16 µM
[24] = second compound 0.316 µM, first compound 10 µM
[25] = second compound 1 µM, first compound 0.316 µM
[26] = second compound 1 µM, first compound 1 µM
[27] = second compound 1 µM, first compound 3.16 µM
[28] = second compound 1 µM, first compound 10 µM
[29] = second compound 3.16 µM, first compound 0.316 µM
[30] = second compound 3.16 µM, first compound 1 µM
[31] = second compound 3.16 µM, first compound 3.16 µM
[32] = second compound 3.16 µM, first compound 10 µM
[33] = second compound 10 µM, first compound 0.316 µM
[34] = second compound 10 µM, first compound 1 µM
[35] = second compound 10 µM, first compound 3.16 µM
[36] = second compound 10 µM, first compound 10 µM
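Also: spheroids exposed to agents for seven days before readout.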
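For viability, T/C in this document: percent of vehicle DMSO control viability so 100% = untreated growth.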

For `CC(C)n1nc(-c2ccc3oc(N)nc3c2)c2c(N)ncnc21` + Cc1nc(NC(=O)N2CCCC2C(N)=O)sc1-c1ccnc(C(C)(C)C(F)(F)F)c1, the IC50 (second compound 0.0316 µM) was 0.0322 µM, the IC50 (second compound 0.1 µM) was 0.0276 µM and the IC50 (second compound 0.316 µM) was 0.0212 µM. For the same molecule, the IC50 (second compound 1 µM) was 0.0126 µM, the IC50 (second compound 3.16 µM) was less than 0.000316 µM and the IC50 (second compound 10 µM) was less than 0.000316 µM. It also gave a viability, T/C (second compound 0.0316 µM, first compound 0.000316 µM) of 84.3%, a viability, T/C (second compound 0.0316 µM, first compound 0.001 µM) of 76% and a viability, T/C (second compound 0.0316 µM, first compound 0.00316 µM) of 98%. For the same molecule, the viability, T/C (second compound 0.0316 µM, first compound 0.01 µM) was 71.5%, the viability, T/C [1] was 51.7% and the viability, T/C [2] was 21.3%. The viability, T/C (second compound 0.1 µM, first compound 0.000316 µM) was 83.8%, the viability, T/C (second compound 0.1 µM, first compound 0.001 µM) was 83.1% and the viability, T/C (second compound 0.1 µM, first compound 0.00316 µM) was 79.8%. The viability, T/C (second compound 0.1 µM, first compound 0.01 µM) was 63.9%, the viability, T/C [3] was 49% and the viability, T/C [4] was 23%. It also gave a viability, T/C (second compound 0.316 µM, first compound 0.000316 µM) of 82.1%, a viability, T/C (second compound 0.316 µM, first compound 0.001 µM) of 73.1% and a viability, T/C (second compound 0.316 µM, first compound 0.00316 µM) of 75.8%. It also gave a viability, T/C (second compound 0.316 µM, first compound 0.01 µM) of 59.6%, a viability, T/C [5] of 44.4% and a viability, T/C [6] of 20.7%. The viability, T/C (second compound 1 µM, first compound 0.000316 µM) was 56.5%, the viability, T/C (second compound 1 µM, first compound 0.001 µM) was 53.4% and the viability, T/C (second compound 1 µM, first compound 0.00316 µM) was 61.6%. For the same molecule, the viability, T/C (second compound 1 µM, first compound 0.01 µM) was 48.7%, the viability, T/C [7] was 42.6% and the viability, T/C [8] was 19.5%. The viability, T/C (second compound 3.16 µM, first compound 0.000316 µM) was 43.2%, the viability, T/C (second compound 3.16 µM, first compound 0.001 µM) was 55.2% and the viability, T/C (second compound 3.16 µM, first compound 0.00316 µM) was 47.5%. It also gave a viability, T/C (second compound 3.16 µM, first compound 0.01 µM) of 40%, a viability, T/C [9] of 28.6% and a viability, T/C [10] of 17.2%. It also gave a viability, T/C (second compound 10 µM, first compound 0.000316 µM) of 33.2%, a viability, T/C (second compound 10 µM, first compound 0.001 µM) of 31.1% and a viability, T/C (second compound 10 µM, first compound 0.00316 µM) of 29.6%. The viability, T/C (second compound 10 µM, first compound 0.01 µM) was 35.4%, the viability, T/C [11] was 18.8% and the viability, T/C [12] was 8.12%.
`CC1(C)CCC(CN2CCN(c3ccc(C(=O)NS(=O)(=O)c4ccc(NCC5CCOCC5)c([N+](=O)[O-])c4)c(Oc4cnc5[nH]ccc5c4)c3)CC2)=C(c2ccc(Cl)cc2)C1` + Cc1nc(NC(=O)N2CCCC2C(N)=O)sc1-c1ccnc(C(C)(C)C(F)(F)F)c1 was tested, and the IC50 (second compound 0.0316 µM) was 5.42 µM, the IC50 (second compound 0.1 µM) was 5.2 µM and the IC50 (second compound 0.316 µM) was 4.13 µM. For the same molecule, the IC50 (second compound 1 µM) was 4.08 µM, the IC50 (second compound 3.16 µM) was 2.74 µM and the IC50 (second compound 10 µM) was less than 0.0316 µM. For the same molecule, the viability, T/C [1] was 91.7%, the viability, T/C [2] was 77.8% and the viability, T/C [13] was 96.2%. For the same molecule, the viability, T/C [14] was 96.8%, the viability, T/C [15] was 89.8% and the viability, T/C [16] was 4.76%. It also gave a viability, T/C [3] of 83.1%, a viability, T/C [4] of 87.5% and a viability, T/C [17] of 83.2%. It also gave a viability, T/C [18] of 80.9%, a viability, T/C [19] of 94.4% and a viability, T/C [20] of 2.88%. The viability, T/C [5] was 92.8%, the viability, T/C [6] was 86.1% and the viability, T/C [21] was 75.5%. It also gave a viability, T/C [22] of 84%, a viability, T/C [23] of 64% and a viability, T/C [24] of 3.65%. For the same molecule, the viability, T/C [7] was 63.6%, the viability, T/C [8] was 63.6% and the viability, T/C [25] was 64%. It also gave a viability, T/C [26] of 65.6%, a viability, T/C [27] of 63.1% and a viability, T/C [28] of 3.88%. For the same molecule, the viability, T/C [9] was 59.1%, the viability, T/C [10] was 53.5% and the viability, T/C [29] was 46.3%. It also gave a viability, T/C [30] of 55.1%, a viability, T/C [31] of 49.4% and a viability, T/C [32] of 2.29%. It also gave a viability, T/C [11] of 32.3%, a viability, T/C [12] of 39.4% and a viability, T/C [33] of 38.9%. For the same molecule, the viability, T/C [34] was 34%, the viability, T/C [35] was 36.1% and the viability, T/C [36] was 1.57%.
In the case of `CCCS(=O)(=O)Nc1ccc(F)c(C(=O)c2c[nH]c3ncc(-c4ccc(Cl)cc4)cc23)c1F` + Cc1nc(NC(=O)N2CCCC2C(N)=O)sc1-c1ccnc(C(C)(C)C(F)(F)F)c1, the IC50 (second compound 0.0316 µM) is reported as 5.16 µM, the IC50 (second compound 0.1 µM) is reported as 4.74 µM and the IC50 (second compound 0.316 µM) is reported as 4.21 µM. The IC50 (second compound 1 µM) was 3.49 µM, the IC50 (second compound 3.16 µM) was 0.0316 µM and the IC50 (second compound 10 µM) was less than 0.0316 µM. It also gave a viability, T/C [1] of 94.2%, a viability, T/C [2] of 95.6% and a viability, T/C [13] of 79.9%. It also gave a viability, T/C [14] of 84.7%, a viability, T/C [15] of 83.7% and a viability, T/C [16] of 4.52%. It also gave a viability, T/C [3] of 84.3%, a viability, T/C [4] of 84.3% and a viability, T/C [17] of 86.2%. The viability, T/C [18] was 96.3%, the viability, T/C [19] was 75.1% and the viability, T/C [20] was 3.91%. For the same molecule, the viability, T/C [5] was 73.2%, the viability, T/C [6] was 62% and the viability, T/C [21] was 80.9%. For the same molecule, the viability, T/C [22] was 78.2%, the viability, T/C [23] was 63.4% and the viability, T/C [24] was 5.17%. For the same molecule, the viability, T/C [7] was 58.1%, the viability, T/C [8] was 52.7% and the viability, T/C [25] was 64.8%. The viability, T/C [26] was 57.5%, the viability, T/C [27] was 54.2% and the viability, T/C [28] was 4.7%. The viability, T/C [9] was 52.2%, the viability, T/C [10] was 38.9% and the viability, T/C [29] was 50.9%. The viability, T/C [30] was 54.1%, the viability, T/C [31] was 37.2% and the viability, T/C [32] was 7.19%. The viability, T/C [11] was 39.7%, the viability, T/C [12] was 35.7% and the viability, T/C [33] was 43.7%. For the same molecule, the viability, T/C [34] was 37.8%, the viability, T/C [35] was 21.2% and the viability, T/C [36] was 4.33%.
In the case of `C[C@@H](NC(=O)c1ncnc(N)c1Cl)c1ncc(C(=O)Nc2cc(C(F)(F)F)c(Cl)cn2)s1` + Cc1nc(NC(=O)N2CCCC2C(N)=O)sc1-c1ccnc(C(C)(C)C(F)(F)F)c1, the IC50 (second compound 0.0316 µM) is reported as greater than 10 µM, the IC50 (second compound 0.1 µM) is reported as greater than 10 µM and the IC50 (second compound 0.316 µM) is reported as greater than 10 µM. For the same molecule, the IC50 (second compound 1 µM) was greater than 10 µM, the IC50 (second compound 3.16 µM) was less than 0.0316 µM and the IC50 (second compound 10 µM) was less than 0.0316 µM. For the same molecule, the viability, T/C [1] was 95.5%, the viability, T/C [2] was 84.1% and the viability, T/C [13] was 88.9%. For the same molecule, the viability, T/C [14] was 81.2%, the viability, T/C [15] was 76.9% and the viability, T/C [16] was 82.5%. For the same molecule, the viability, T/C [3] was 79.7%, the viability, T/C [4] was 70.8% and the viability, T/C [17] was 85.2%. It also gave a viability, T/C [18] of 74.1%, a viability, T/C [19] of 85.9% and a viability, T/C [20] of 74.1%. It also gave a viability, T/C [5] of 72%, a viability, T/C [6] of 79.2% and a viability, T/C [21] of 69.8%. The viability, T/C [22] was 78.4%, the viability, T/C [23] was 74.7% and the viability, T/C [24] was 69.7%. For the same molecule, the viability, T/C [7] was 58.6%, the viability, T/C [8] was 62% and the viability, T/C [25] was 61.9%. It also gave a viability, T/C [26] of 54.9%, a viability, T/C [27] of 61.3% and a viability, T/C [28] of 50.8%. The viability, T/C [9] was 40%, the viability, T/C [10] was 48.6% and the viability, T/C [29] was 43.2%. For the same molecule, the viability, T/C [30] was 42.5%, the viability, T/C [31] was 42.4% and the viability, T/C [32] was 42.9%. It also gave a viability, T/C [11] of 35.2%, a viability, T/C [12] of 39.6% and a viability, T/C [33] of 35.2%. The viability, T/C [34] was 30.6%, the viability, T/C [35] was 23.4% and the viability, T/C [36] was 12.6%.
